Like-named read-outs stand apart in the source and are kept apart here.
Key:
human NPR1 = target: T1, human NPR1 (Homo sapiens, UniProt P16066); assay: Cellular cGMP production assay, human NPR1 expressing CHO-K1 cells (CisBio HTRF); format: cell-based; conditions: for AC50: cGMP production, 30 min at 37° C., 12-point dose-response from 30 μM; for Human NPR1 Amax (% of ANP): maximum cGMP production as percentage of the maximum cGMP produced with ANP
T1 construct: host or cells: CHO-K1
T1 sequence (P16066 33-1061): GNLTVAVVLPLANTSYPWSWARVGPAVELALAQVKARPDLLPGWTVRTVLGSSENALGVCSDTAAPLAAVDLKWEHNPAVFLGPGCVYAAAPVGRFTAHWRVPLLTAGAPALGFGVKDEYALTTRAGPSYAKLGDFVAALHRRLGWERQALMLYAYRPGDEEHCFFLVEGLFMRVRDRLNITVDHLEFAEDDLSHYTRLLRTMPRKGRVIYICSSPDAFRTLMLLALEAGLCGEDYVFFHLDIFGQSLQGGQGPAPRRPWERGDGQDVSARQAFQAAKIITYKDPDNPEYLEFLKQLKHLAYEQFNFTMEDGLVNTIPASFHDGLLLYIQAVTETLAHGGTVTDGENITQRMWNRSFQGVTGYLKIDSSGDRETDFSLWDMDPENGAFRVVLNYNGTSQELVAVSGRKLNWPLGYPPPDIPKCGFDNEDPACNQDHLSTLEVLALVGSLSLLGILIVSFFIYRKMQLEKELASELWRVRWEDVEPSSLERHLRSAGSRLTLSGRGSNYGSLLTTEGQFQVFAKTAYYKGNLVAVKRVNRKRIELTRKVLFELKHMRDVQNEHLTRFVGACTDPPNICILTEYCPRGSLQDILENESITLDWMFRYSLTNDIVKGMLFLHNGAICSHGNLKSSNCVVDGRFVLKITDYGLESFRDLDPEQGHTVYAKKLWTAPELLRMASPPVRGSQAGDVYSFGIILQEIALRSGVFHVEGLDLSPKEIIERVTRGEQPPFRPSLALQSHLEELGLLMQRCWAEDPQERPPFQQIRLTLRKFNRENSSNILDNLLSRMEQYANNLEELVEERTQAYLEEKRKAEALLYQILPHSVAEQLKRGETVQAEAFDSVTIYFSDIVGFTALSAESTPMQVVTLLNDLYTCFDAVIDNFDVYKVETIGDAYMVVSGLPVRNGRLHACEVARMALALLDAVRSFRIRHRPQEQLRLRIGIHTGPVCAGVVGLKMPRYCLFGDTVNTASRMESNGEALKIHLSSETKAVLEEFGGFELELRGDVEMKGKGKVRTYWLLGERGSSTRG
How it was run: (§1)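 Cells receive IBMX (1 mM) assay buffer plus test compound over twelve threefold dilutions starting at 30 μM, and cGMP accumulates for 30 min at 37 °C. Lysates are then incubated one hour at room temperature with d2-labelled cGMP and cryptate-labelled antibody before time-resolved fluorescence reading.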

monkey NPR1 = monkey NPR1 (Macaca fascicularis, UniProt A0A7N9DBT9); assay: Cellular cGMP production assay, monkey NPR1 expressing CHO-K1 cells (CisBio HTRF); format: cell-based; conditions: for Monkey NPR1 Amax (% of ANP): maximum cGMP production as percentage of the maximum cGMP produced with ANP
Chain of monkey NPR1 (A0A7N9DBT9 entry or part of it): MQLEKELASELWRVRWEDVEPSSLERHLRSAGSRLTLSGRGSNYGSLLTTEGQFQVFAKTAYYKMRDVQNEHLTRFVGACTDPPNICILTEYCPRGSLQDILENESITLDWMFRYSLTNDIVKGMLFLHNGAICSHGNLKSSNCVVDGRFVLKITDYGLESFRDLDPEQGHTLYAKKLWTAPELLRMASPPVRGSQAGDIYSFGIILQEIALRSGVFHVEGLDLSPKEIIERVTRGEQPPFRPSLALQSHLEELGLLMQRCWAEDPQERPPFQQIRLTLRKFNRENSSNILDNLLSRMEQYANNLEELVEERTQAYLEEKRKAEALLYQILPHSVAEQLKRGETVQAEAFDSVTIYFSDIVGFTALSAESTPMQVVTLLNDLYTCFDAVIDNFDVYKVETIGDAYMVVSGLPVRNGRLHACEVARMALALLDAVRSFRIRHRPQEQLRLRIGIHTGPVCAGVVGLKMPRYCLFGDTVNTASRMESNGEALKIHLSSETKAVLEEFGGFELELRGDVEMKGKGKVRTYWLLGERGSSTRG
How it was run: as §1

[1] = cGMP production, monkey NPR1 CHO-K1 cells, 30 min at 37° C., 12-point dose-response from 30 μM, read-out: Monkey NPR1 AC50

Structure (SMILES)	AC50 (human NPR1)	Human NPR1 Amax (% of ANP) (human NPR1)	AC50 (monkey NPR1)	Monkey NPR1 Amax (% of ANP) (monkey NPR1; monkey NPR1 CHO-K1 cells)	AC50 (monkey NPR1; [1])
CC[C@@H](Nc1nc2c(c(N[C@@H](CN3C4CCCC3CC4)c3cnn(C)c3)n1)C[C@H](c1ccccc1)CC2)[C@H]1CC[C@H](C(=O)O)CC1 [Compound 60, (1R,4r)-4-((1R)-1-(((6R)-4-(((1R)-2-(8-azabicyclo[3.2.1]octan-8-yl)-1-(1-methyl-1H-pyrazol-4-yl)ethyl)amino)-6-phenyl-5,6,7,8-tetrahydroquinazolin-2-yl)amino)propyl)cyclohexane-1-carboxylic acid]	0.205 µM	93.233 % of ANP	0.099 µM	106.189 % of ANP	
CC[C@H]([C@H]1CC[C@H](C(=O)O)CC1)N(C)c1nc2c(c(N[C@@H](CN3CCCCC3)c3cnn(CC)c3)n1)C[C@H](c1cccc(F)c1)CC2 [Compound 91, (1R,4r)-4-((R)-1-(((R)-4-(((R)-1-(1-ethyl-1H-pyrazol-4-yl)-2-(piperidin-1-yl)ethyl)amino)-6-(3-fluorophenyl)-5,6,7,8-tetrahydroquinazolin-2-yl)(methyl)amino)propyl)cyclohexane-1-carboxylic acid]	0.315 µM	98.135 % of ANP		102.129 % of ANP	0.184 µM
CC[C@H](N(C)c1nc2c(c(N[C@@H](CN3CCC[C@@H](CF)C3)c3cnn(C)c3)n1)C[C@@](C)(c1ccccc1)CC2)C12CC(C(=O)O)(C1)C2 [Compound 36, 3-((S)-1-(((S)-4-(((R)-2-((R)-3-(fluoromethyl)piperidin-1-yl)-1-(1-methyl-1H-pyrazol-4-yl)ethyl)amino)-6-methyl-6-phenyl-5,6,7,8-tetrahydroquinazolin-2-yl)(methyl)amino)propyl)bicyclo[1.1.1]pentane-1-carboxylic acid]	0.15 µM	101.036 % of ANP		101.251 % of ANP	0.133 µM
CC[C@@H](Nc1nc2c(c(N[C@@H](CN3CCCCC3)c3ccccc3)n1)C[C@@H](c1cccc(F)c1)CC2)[C@H]1CC[C@H](C(=O)O)CC1 [Compound 37, (1R,4r)-4-((R)-1-(((S)-6-(3-fluorophenyl)-4-(((R)-1-phenyl-2-(piperidin-1-yl)ethyl)amino)-5,6,7,8-tetrahydroquinazolin-2-yl)amino)propyl)cyclohexane-1-carboxylic acid]	0.15 µM	105.989 % of ANP		107.224 % of ANP	0.158 µM
CC[C@H]([C@H]1CC[C@H](C(=O)O)CC1)N(C)c1nc2c(c(N[C@@H](CN3CCC[C@@H](C)C3)c3cnn(C)c3)n1)C[C@H](c1ccccc1)CC2 [Compound 125, (1R,4r)-4-((R)-1-(methyl((R)-4-(((R)-1-(1-methyl-1H-pyrazol-4-yl)-2-((R)-3-methylpiperidin-1-yl)ethyl)amino)-6-phenyl-5,6,7,8-tetrahydroquinazolin-2-yl)amino)propyl)cyclohexane-1-carboxylic acid]	0.619 µM	106.130 % of ANP		114.072 % of ANP	0.41 µM
CC[C@@H](Nc1nc2c(c(N[C@@H](CN3CCCCCC3)c3cnn(C)c3)n1)C[C@H](c1ccccc1)CC2)[C@H]1CC[C@H](C(=O)O)CC1 [Compound 51, (1R,4r)-4-((R)-1-(((R)-4-(((R)-2-(azepan-1-yl)-1-(1-methyl-1H-pyrazol-4-yl)ethyl)amino)-6-phenyl-5,6,7,8-tetrahydroquinazolin-2-yl)amino)propyl)cyclohexane-1-carboxylic acid]	0.187 µM	106.105 % of ANP		104.734 % of ANP	0.11 µM
CC[C@H]([C@H]1CC[C@H](C(=O)O)CC1)N(C)c1nc2c(c(N[C@@H](CN3C4CCCC3CC4)c3cnn(C)c3)n1)CN(c1ccc(F)cc1)CC2 [Compound 80, (1R,4r)-4-((1R)-1-((4-(((1R)-2-(8-azabicyclo[3.2.1]octan-8-yl)-1-(1-methyl-1H-pyrazol-4-yl)ethyl)amino)-6-(4-fluorophenyl)-5,6,7,8-tetrahydropyrido[4,3-d]pyrimidin-2-yl)(methyl)amino)propyl)cyclohexane-1-carboxylic acid]	0.267 µM	94.876 % of ANP	0.137 µM	102.546 % of ANP	
C[C@@H](Nc1nc2c(c(N[C@@H](CN3C4CCCC3CCC4)c3cnn(C)c3)n1)C[C@H](c1ccccc1)CC2)c1ccc(C(=O)O)c(F)c1 [Compound 168, 4-((R)-1-(((R)-4-(((R)-2-((1S,5S)-9-azabicyclo[3.3.1]nonan-9-yl)-1-(1-methyl-1H-pyrazol-4-yl)ethyl)amino)-6-phenyl-5,6,7,8-tetrahydroquinazolin-2-yl)amino)ethyl)-2-fluorobenzoic acid]	2.23 µM	96.777 % of ANP	1.54 µM	93.654 % of ANP	
CC[C@H]([C@H]1CC[C@H](C(=O)O)CC1)N(C)c1nc2c(c(N[C@@H](CN3CCC[C@H](CF)C3)c3cnn(C)c3)n1)C[C@H](c1ccccc1)CC2 [Compound 87, (1R,4r)-4-((R)-1-(((R)-4-(((R)-2-((S)-3-(fluoromethyl)piperidin-1-yl)-1-(1-methyl-1H-pyrazol-4-yl)ethyl)amino)-6-phenyl-5,6,7,8-tetrahydroquinazolin-2-yl)(methyl)amino)propyl)cyclohexane-1-carboxylic acid]	0.292 µM	93.715 % of ANP		100.104 % of ANP	0.235 µM
CC[C@H]([C@H]1CC[C@H](C(=O)O)CC1)N(C)c1nc2c(c(N[C@@H](CN3C4CCCC3CC(O)C4)c3ccccc3)n1)C[C@H](c1ccccc1)CC2 (stereo partly drawn) [Compound 112, (1R,4r)-4-((1R)-1-(((6R)-4-(((1R)-2-((1R,5S)-3-hydroxy-9-azabicyclo[3.3.1]nonan-9-yl)-1-phenylethyl)amino)-6-phenyl-5,6,7,8-tetrahydroquinazolin-2-yl)(methyl)amino)propyl)cyclohexane-1-carboxylic acid]	0.427 µM	90.394 % of ANP	0.394 µM	97.009 % of ANP	
CC[C@H]([C@H]1CC[C@H](C(=O)O)CC1)N(C)c1nc2c(c(N[C@@H](CN3C4CCCC3CC4)c3cnn(C)c3)n1)C[C@H](c1cccc(F)c1)CC2 [Compound 33, (1R,4r)-4-((1R)-1-(((6R)-4-(((1R)-2-(8-azabicyclo[3.2.1]octan-8-yl)-1-(1-methyl-1H-pyrazol-4-yl)ethyl)amino)-6-(3-fluorophenyl)-5,6,7,8-tetrahydroquinazolin-2-yl)(methyl)amino)propyl)cyclohexane-1-carboxylic acid]	0.145 µM	99.163 % of ANP	0.104 µM	106.934 % of ANP	
CCn1cc([C@H](CN2C3CCCC2CCC3)Nc2nc(N[C@H](C)c3ccc(C(=O)O)cc3)nc3c2C[C@H](c2cccc(F)c2)CC3)cn1 [Compound 153, 4-((R)-1-(((R)-4-(((R)-2-((1S,5S)-9-azabicyclo[3.3.1]nonan-9-yl)-1-(1-ethyl-1H-pyrazol-4-yl)ethyl)amino)-6-(3-fluorophenyl)-5,6,7,8-tetrahydroquinazolin-2-yl)amino)ethyl)benzoic acid]	1.2 µM	93.868 % of ANP	0.753 µM	98.372 % of ANP	

— patent US12129246B1, “Hydroquinazoline derivatives for the treatment of a disease or disorder” (Novartis AG, priority 2023, dated 2024)
